Reference: ChEMBL document CHEMBL4376820, “Homodimeric Tobramycin Adjuvant Repurposes Novobiocin as an Effective Antibacterial Agent against Gram-Negative Bacteria” (J Med Chem, 2019)
The source made the active and inactive calls. The rule behind the calls is not given here.

How the values were obtained:
Pseudomonas aeruginosa [1] = test: Synergistic antibacterial activity against wild type Pseudomonas aeruginosa PAO1 assessed as potentiation of chloramphenicol-induced antibacterial effect incubated for 18 hrs by checkerboard assay; assay type: functional, organism-based
Pseudomonas aeruginosa [2] = test: Synergistic antibacterial activity against wild type Pseudomonas aeruginosa PAO1 assessed as potentiation of tobramycin-induced antibacterial effect at <= 7.1 uM incubated for 18 hrs by checkerboard assay; assay type: functional, organism-based
HEK293 = test: Cytotoxicity against human HEK293 cells at 50 uM incubated for 48 hrs by PrestoBlue dye based fluorescence assay; assay type: cell-based; conditions: hek293, 48 h
Pseudomonas aeruginosa [3] = test: Synergistic antibacterial activity against wild type Pseudomonas aeruginosa PAO1 assessed as potentiation of ceftazidime-induced antibacterial effect incubated for 18 hrs by checkerboard assay; assay type: functional, organism-based
Pseudomonas aeruginosa [4] = test: Synergistic antibacterial activity against wild type Pseudomonas aeruginosa PAO1 assessed as potentiation of novobiocin-induced antibacterial effect incubated for 18 hrs by checkerboard assay; assay type: functional, organism-based
Pseudomonas aeruginosa [5] = test: Synergistic antibacterial activity against wild type Pseudomonas aeruginosa PAO1 assessed as potentiation of moxifloxacin-induced antibacterial effect incubated for 18 hrs by checkerboard assay; assay type: functional, organism-based
Pseudomonas aeruginosa [6] = test: Synergistic antibacterial activity against wild type Pseudomonas aeruginosa PAO1 assessed as potentiation of fosfomycin-induced antibacterial effect incubated for 18 hrs by checkerboard assay relative to fosfomycin alone; assay type: functional
Pseudomonas aeruginosa [7] = test: Synergistic antibacterial activity against wild type Pseudomonas aeruginosa PAO1 assessed as potentiation of ciprofloxacin-induced antibacterial effect incubated for 18 hrs by checkerboard assay relative to ciprofloxacin alone; assay type: functional
Pseudomonas aeruginosa [8] = test: Synergistic antibacterial activity against wild type Pseudomonas aeruginosa PAO1 assessed as potentiation of clindamycin-induced antibacterial effect incubated for 18 hrs by checkerboard assay relative to clindamycin alone; assay type: functional
Pseudomonas aeruginosa [9] = test: Synergistic antibacterial activity against wild type Pseudomonas aeruginosa PAO1 assessed as potentiation of levofloxacin-induced antibacterial effect incubated for 18 hrs by checkerboard assay; assay type: functional, organism-based
Pseudomonas aeruginosa [10] = test: Synergistic antibacterial activity against wild type Pseudomonas aeruginosa PAO1 assessed as potentiation of colistin-induced antibacterial effect at <=7.1 uM incubated for 18 hrs by checkerboard assay; assay type: functional, organism-based
Pseudomonas aeruginosa [11] = test: Antibacterial activity against wild type Pseudomonas aeruginosa PAO1 assessed as fractional inhibitory concentration index incubated for 18 hrs in presence of colistin by checkerboard assay; assay type: functional
Pseudomonas aeruginosa [12] = test: Synergistic antibacterial activity against wild type Pseudomonas aeruginosa PAO1 assessed as potentiation of vancomycin-induced antibacterial effect at <=7.1 uM incubated for 18 hrs by checkerboard assay; assay type: functional, organism-based
Pseudomonas aeruginosa [13] = test: Synergistic antibacterial activity against wild type Pseudomonas aeruginosa PAO1 assessed as potentiation of meropenem-induced antibacterial effect incubated for 18 hrs by checkerboard assay relative to meropenem alone; assay type: functional
Pseudomonas aeruginosa [14] = test: Synergistic antibacterial activity against wild type Pseudomonas aeruginosa PAO1 assessed as potentiation of ceftazidime-induced antibacterial effect incubated for 18 hrs by checkerboard assay relative to ceftazidime alone; assay type: functional
Pseudomonas aeruginosa [15] = test: Synergistic antibacterial activity against wild type Pseudomonas aeruginosa PAO1 assessed as potentiation of rifampicin-induced antibacterial effect incubated for 18 hrs by checkerboard assay relative to rifampicin alone; assay type: functional
Pseudomonas aeruginosa [16] = test: Synergistic antibacterial activity against wild type Pseudomonas aeruginosa PAO1 assessed as potentiation of chloramphenicol-induced antibacterial effect incubated for 18 hrs by checkerboard assay relative to chloramphenicol alone; assay type: functional
Erythrocyte = test: Hemolytic activity against porcine erythrocytes assessed as hemoglobin release at 1024 ug/ml incubated for 1 hr by microplate reader analysis; assay type: ADME, cell-based, Sus scrofa; conditions: pig
Pseudomonas aeruginosa [17] = test: Synergistic antibacterial activity against wild type Pseudomonas aeruginosa PAO1 assessed as potentiation of piperacillin-induced antibacterial effect incubated for 18 hrs by checkerboard assay; assay type: functional, organism-based
Pseudomonas aeruginosa [18] = test: Synergistic antibacterial activity against wild type Pseudomonas aeruginosa PAO1 assessed as potentiation of ciprofloxacin-induced antibacterial effect incubated for 18 hrs by checkerboard assay; assay type: functional, organism-based
Pseudomonas aeruginosa [19] = test: Synergistic antibacterial activity against wild type Pseudomonas aeruginosa PAO1 assessed as potentiation of piperacillin-induced antibacterial effect incubated for 18 hrs by checkerboard assay relative to piperacillin alone; assay type: functional
Pseudomonas aeruginosa [20] = test: Synergistic antibacterial activity against wild type Pseudomonas aeruginosa PAO1 assessed as potentiation of cefotaxime-induced antibacterial effect incubated for 18 hrs by checkerboard assay relative to cefotaxime alone; assay type: functional
Pseudomonas aeruginosa [21] = test: Synergistic antibacterial activity against wild type Pseudomonas aeruginosa PAO1 assessed as potentiation of doxycycline-induced antibacterial effect incubated for 18 hrs by checkerboard assay; assay type: functional, organism-based
Pseudomonas aeruginosa [22] = test: Synergistic antibacterial activity against wild type Pseudomonas aeruginosa PAO1 assessed as potentiation of cefotaxime-induced antibacterial effect incubated for 18 hrs by checkerboard assay; assay type: functional, organism-based
Pseudomonas aeruginosa [23] = test: Synergistic antibacterial activity against wild type Pseudomonas aeruginosa PAO1 assessed as potentiation of aztreonam-induced antibacterial effect incubated for 18 hrs by checkerboard assay relative to aztreonam alone; assay type: functional
Pseudomonas aeruginosa [24] = test: Synergistic antibacterial activity against wild type Pseudomonas aeruginosa PAO1 assessed as potentiation of novobiocin-induced antibacterial effect incubated for 18 hrs by checkerboard assay relative to novobiocin alone; assay type: functional
Pseudomonas aeruginosa [25] = test: Synergistic antibacterial activity against wild type Pseudomonas aeruginosa PAO1 assessed as potentiation of linezolid-induced antibacterial effect incubated for 18 hrs by checkerboard assay relative to linezolid alone; assay type: functional
Pseudomonas aeruginosa [26] = test: Synergistic antibacterial activity against wild type Pseudomonas aeruginosa PAO1 assessed as potentiation of doxycycline-induced antibacterial effect incubated for 18 hrs by checkerboard assay relative to doxycycline alone; assay type: functional
Pseudomonas aeruginosa [27] = test: Synergistic antibacterial activity against wild type Pseudomonas aeruginosa PAO1 assessed as potentiation of minocycline-induced antibacterial effect incubated for 18 hrs by checkerboard assay; assay type: functional, organism-based
HepG2 = test: Cytotoxicity against human HepG2 cells at 50 uM incubated for 48 hrs by PrestoBlue dye based fluorescence assay; assay type: cell-based; conditions: hepg2, 48 h
Pseudomonas aeruginosa [28] = test: Synergistic antibacterial activity against wild type Pseudomonas aeruginosa PAO1 assessed as potentiation of aztreonam-induced antibacterial effect incubated for 18 hrs by checkerboard assay; assay type: functional, organism-based
Pseudomonas aeruginosa [29] = test: Synergistic antibacterial activity against wild type Pseudomonas aeruginosa PAO1 assessed as potentiation of linezolid-induced antibacterial effect incubated for 18 hrs by checkerboard assay; assay type: functional, organism-based
Pseudomonas aeruginosa [30] = test: Synergistic antibacterial activity against wild type Pseudomonas aeruginosa PAO1 assessed as potentiation of rifampicin-induced antibacterial effect incubated for 18 hrs by checkerboard assay; assay type: functional, organism-based
Pseudomonas aeruginosa [31] = test: Synergistic antibacterial activity against wild type Pseudomonas aeruginosa PAO1 assessed as potentiation of minocycline-induced antibacterial effect incubated for 18 hrs by checkerboard assay relative to minocycline alone; assay type: functional
Pseudomonas aeruginosa [32] = test: Synergistic antibacterial activity against wild type Pseudomonas aeruginosa PAO1 assessed as potentiation of levofloxacin-induced antibacterial effect incubated for 18 hrs by checkerboard assay relative to levofloxacin alone; assay type: functional
Pseudomonas aeruginosa [33] = test: Synergistic antibacterial activity against wild type Pseudomonas aeruginosa PAO1 assessed as potentiation of clindamycin-induced antibacterial effect incubated for 18 hrs by checkerboard assay; assay type: functional, organism-based
Pseudomonas aeruginosa [34] = test: Antibacterial activity against wild type Pseudomonas aeruginosa PAO1 assessed as fractional inhibitory concentration index incubated for 18 hrs in presence of tobramycin by checkerboard assay; assay type: functional
[35] = Toxicity in Galleria mellonella larvae assessed as survivability at 200 mg/kg measured every 6 hrs for 72 hrs; assay type: organism-based; conditions: in vivo
Pseudomonas aeruginosa [36] = test: Synergistic antibacterial activity against wild type Pseudomonas aeruginosa PAO1 assessed as potentiation of moxifloxacin-induced antibacterial effect incubated for 18 hrs by checkerboard assay relative to moxifloxacin alone; assay type: functional
Pseudomonas aeruginosa [37] = test: Synergistic antibacterial activity against wild type Pseudomonas aeruginosa PAO1 assessed as potentiation of meropenem-induced antibacterial effect incubated for 18 hrs by checkerboard assay; assay type: functional, organism-based
Pseudomonas aeruginosa [38] = test: Synergistic antibacterial activity against wild type Pseudomonas aeruginosa PAO1 assessed as potentiation of fosfomycin-induced antibacterial effect incubated for 18 hrs by checkerboard assay; assay type: functional, organism-based
Acinetobacter baumannii [39] = test: Antibacterial activity against wild type Acinetobacter baumannii ATCC 17978 by checkerboard assay; assay type: functional
Acinetobacter baumannii [40] = test: Antibacterial activity against novobiocin and test compound-resistant Acinetobacter baumannii ATCC 17978 mutant generated from seven serial passages in presence of novobiocin by checkerboard assay; assay type: functional
Acinetobacter baumannii [41] = test: Antibacterial activity against novobiocin-resistant Acinetobacter baumannii ATCC 17978 mutant generated from seven serial passages by checkerboard assay; assay type: functional
Pseudomonas aeruginosa [42] = test: Induction of outer membrane permeabilization in Pseudomonas aeruginosa PAO1 assessed as increase in accumulation of NPN by measuring fluorescence intensity at 14 ug/ml measured immediately by NPN dye uptake assay; assay type: organism-based
Acinetobacter baumannii [43] = test: Antibacterial activity against wild type Acinetobacter baumannii ATCC 17978 assessed as resistant development at sub-MIC measured after 7 days of passaging by microbroth dilution method relative to control; assay type: functional
Acinetobacter baumannii [44] = test: Antibacterial activity against colistin-resistant Acinetobacter baumannii ATCC 17978 mutant generated from seven serial passages by checkerboard assay; assay type: functional

NC[C@H]1O[C@H](O[C@H]2[C@H](OCCCCCCCCn3cc(CCCCO[C@@H]4[C@@H](O[C@H]5O[C@H](CO)[C@@H](O)[C@H](N)[C@H]5O)[C@H](N)C[C@H](N)[C@H]4O[C@H]4O[C@H](CN)[C@@H](O)C[C@H]4N)nn3)[C@@H](O[C@H]3O[C@H](CO)[C@@H](O)[C@H](N)[C@H]3O)[C@H](N)C[C@@H]2N)[C@H](N)C[C@@H]1O.O=C(O)C(F)(F)F.O=C(O)C(F)(F)F.O=C(O)C(F)(F)F.O=C(O)C(F)(F)F.O=C(O)C(F)(F)F.O=C(O)C(F)(F)F.O=C(O)C(F)(F)F.O=C(O)C(F)(F)F.O=C(O)C(F)(F)F.O=C(O)C(F)(F)F
Activity (Pseudomonas aeruginosa [1]): Dose-dependent effect
Activity (Pseudomonas aeruginosa [2]): inactive
Activity (HEK293): Non-Toxic
Activity (Pseudomonas aeruginosa [3]): Dose-dependent effect
Activity (Pseudomonas aeruginosa [4]): Dose-dependent effect
Activity (Pseudomonas aeruginosa [5]): Dose-dependent effect
fold change (FC) (Pseudomonas aeruginosa [6]): 4 - 128
fold change (FC) (Pseudomonas aeruginosa [7]): 4 - 128
fold change (FC) (Pseudomonas aeruginosa [8]): 4 - 128
Activity (Pseudomonas aeruginosa [9]): Dose-dependent effect
Activity (Pseudomonas aeruginosa [10]): inactive
fractional inhibitory concentration index (FICI) (Pseudomonas aeruginosa [11]): >4
Activity (Pseudomonas aeruginosa [12]): inactive
fold change (FC) (Pseudomonas aeruginosa [13]): 4 - 128
fold change (FC) (Pseudomonas aeruginosa [14]): 4 - 128
fold change (FC) (Pseudomonas aeruginosa [15]): 4 - 128
fold change (FC) (Pseudomonas aeruginosa [16]): 4 - 128
Activity (Erythrocyte): Non-Toxic
Activity (Pseudomonas aeruginosa [17]): Dose-dependent effect
Activity (Pseudomonas aeruginosa [18]): Dose-dependent effect
fold change (FC) (Pseudomonas aeruginosa [19]): 4 - 128
fold change (FC) (Pseudomonas aeruginosa [20]): 4 - 128
Activity (Pseudomonas aeruginosa [21]): Dose-dependent effect
Activity (Pseudomonas aeruginosa [22]): Dose-dependent effect
fold change (FC) (Pseudomonas aeruginosa [23]): 4 - 128
fold change (FC) (Pseudomonas aeruginosa [24]): 4 - 128
fold change (FC) (Pseudomonas aeruginosa [25]): 4 - 128
fold change (FC) (Pseudomonas aeruginosa [26]): 4 - 128
Activity (Pseudomonas aeruginosa [27]): Dose-dependent effect
Activity (HepG2): Non-Toxic
Activity (Pseudomonas aeruginosa [28]): Dose-dependent effect
Activity (Pseudomonas aeruginosa [29]): Dose-dependent effect
Activity (Pseudomonas aeruginosa [30]): Dose-dependent effect
fold change (FC) (Pseudomonas aeruginosa [31]): 4 - 128
fold change (FC) (Pseudomonas aeruginosa [32]): 4 - 128
Activity (Pseudomonas aeruginosa [33]): Dose-dependent effect
fractional inhibitory concentration index (FICI) (Pseudomonas aeruginosa [34]): >4
Activity [35]: Non-Toxic
fold change (FC) (Pseudomonas aeruginosa [36]): 4 - 128
Activity (Pseudomonas aeruginosa [37]): Dose-dependent effect
Activity (Pseudomonas aeruginosa [38]): Dose-dependent effect

NC[C@H]1O[C@H](O[C@H]2[C@H](O)[C@@H](O[C@H]3O[C@H](CO)[C@@H](O)[C@H](N)[C@H]3O)[C@H](N)C[C@@H]2N)[C@H](N)C[C@@H]1O [TOBRAMYCIN]
MIC (Acinetobacter baumannii [39]): 1 µg/mL
MIC (Acinetobacter baumannii [40]): 1 µg/mL
MIC (Acinetobacter baumannii [41]): 1 µg/mL
Activity (Pseudomonas aeruginosa [42]): inactive
fold change (FC) (Acinetobacter baumannii [43]): 512
MIC (Acinetobacter baumannii [44]): 0.25 µg/mL
